The target of one series is T1, CYP2C9 (Homo sapiens, UniProt P11712).
T1 construct: from tissue; host or cells: human liver microsomes
In words: Inhibition of human liver microsomal CYP2C9 (diclofenac probe). It counts as in vitro ADME. The conditions noted are these: human liver microsomes. The procedure:
(§1) Experimental Example 4 Inhibition Effect on the Activity of Human Liver Microsomal Cytochrome P450 Isoezymes (CYP1A2, CYP2C9, CYP2C19, CYP2D6 and CYP3A4)
(§2) A total of 5 specific probe substrates for CYP's five isozymes, Phenacetin (CYP1A2), Diclofenac (CYP2C9), […] (S)-Mephenytoin, CYP2C19), Dextromethorphan (CYP2D6) and Midazolam (CYP3A4) were incubated with human liver microsomes and test compounds, respectively, and reduced nicotinamide adenine dinucleotide phosphate (NADPH) was added to initiate the reaction. After the reaction, the sample was processed and liquid chromatography tandem mass spectrometry (LC-MS/MS) was used to quantitatively detect the […] metabolites produced by the specific substrate, Acetaminophen and 4′-hydroxydiclofenac, 4′-hydroxymephenytoin, Dextrorphan and 1′-hydroxymidazolam, in order to calculate the corresponding half maximal inhibitory concentration (IC50).
Background: Microsomes from liver hold many membrane-bound enzymes, among them those of drug oxidation.

The next series deals with T2, CYP2C19 (Homo sapiens, UniProt P33261).
T2 construct: from tissue; host or cells: human liver microsomes
The series is described as follows: Inhibition of human liver microsomal CYP2C19 ((S)-mephenytoin probe). The class given is in vitro ADME. The note with it: human liver microsomes. The procedure: as §1, §2

A further series deals with T3, CYP3A4 (Homo sapiens, UniProt P08684).
T3 construct: from tissue; host or cells: human liver microsomes
The series is described as follows: Inhibition of human liver microsomal CYP3A4 (midazolam probe). The conditions noted are these: human liver microsomes, probe midazolam. The class given is in vitro ADME. Here is the method:
as §1, §2

Series [1] deals with human liver microsomal cytochrome P450 isoenzymes. The series is described as follows: Inhibition of human liver microsomal cytochrome P450 isoenzymes, overall conclusion. The class given is in vitro ADME. The note with it: human liver microsomes. Here is the method:
as §1, §2

The next series deals with T4, CYP1A2 (Homo sapiens, UniProt P05177).
T4 construct: from tissue; host or cells: human liver microsomes
T4 sequence (P05177 1-516): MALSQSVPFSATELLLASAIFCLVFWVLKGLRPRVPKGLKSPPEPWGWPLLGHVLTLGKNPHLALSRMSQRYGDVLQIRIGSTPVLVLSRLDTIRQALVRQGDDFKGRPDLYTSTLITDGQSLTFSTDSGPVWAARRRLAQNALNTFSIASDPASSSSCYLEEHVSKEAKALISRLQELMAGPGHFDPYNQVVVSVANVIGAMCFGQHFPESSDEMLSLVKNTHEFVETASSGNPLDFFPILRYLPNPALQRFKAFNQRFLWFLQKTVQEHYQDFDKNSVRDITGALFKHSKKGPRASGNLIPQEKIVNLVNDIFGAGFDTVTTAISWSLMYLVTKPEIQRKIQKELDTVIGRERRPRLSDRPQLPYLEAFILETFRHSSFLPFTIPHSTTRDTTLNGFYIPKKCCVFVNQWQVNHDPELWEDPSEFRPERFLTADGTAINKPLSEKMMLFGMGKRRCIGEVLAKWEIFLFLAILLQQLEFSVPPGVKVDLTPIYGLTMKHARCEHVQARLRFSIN
In words: Inhibition of human liver microsomal CYP1A2 (phenacetin probe). The conditions noted are these: human liver microsomes. It counts as in vitro ADME. Here is the method: as §1, §2

Series [2] can be described thus: Comparative pharmacokinetics study in cynomolgus monkeys. The class given is in vivo. The note with it: cynomolgus monkey. An excerpt:
Experimental Example 3: Comparative Pharmacokinetics Study in Cynomolgus Monkeys
Male cynomolgus monkeys were used as the test animals in this study. The drug concentrations in plasma of the cynomolgus monkeys by intravenous or oral administration of test compound WX047 and reference compound at different time points were quantitatively determined by LC/MS/MS, which were used to evaluate the pharmacokinetic profile of the two test drugs in cynomolgus monkeys.
A clear solution of the test compound was injected into cynomolgus monkeys via t the cephalic or saphenous vein (overnight fasting, 2.5-7 kg), and the test compound was intragastrically administered to the cynomolgus monkeys (overnight fasting, 7-10 weeks old). Approximately 400 μL of blood was collected from the peripheral vein of the animals 0.0833, 0.25, 0.5, 1, 2, 4, 6, 8, 12 and 24 hours after administration, and transferred into an commercial centrifuge tube containing EDTA-K2*2H2O anticoagulation. The plasma was collected by centrifugation at 3000 g for 10 minutes at 4° C. The plasma concentration was determined by LC-MS/MS. The pharmacokinetic parameters were calculated by the non-compartment model linear logarithmic trapezoidal method using WinNonlin™ Version 6.3 (Pharsight, Mountain View, Calif.) pharmacokinetic software.

Setting [3] is: male, plasma, intravenous injection 1 mg/kg.

Molecules are shown by their SMILES. A value given as a limit tells only on which side of the number the result lay.

T3 sequence (P08684 whole entry): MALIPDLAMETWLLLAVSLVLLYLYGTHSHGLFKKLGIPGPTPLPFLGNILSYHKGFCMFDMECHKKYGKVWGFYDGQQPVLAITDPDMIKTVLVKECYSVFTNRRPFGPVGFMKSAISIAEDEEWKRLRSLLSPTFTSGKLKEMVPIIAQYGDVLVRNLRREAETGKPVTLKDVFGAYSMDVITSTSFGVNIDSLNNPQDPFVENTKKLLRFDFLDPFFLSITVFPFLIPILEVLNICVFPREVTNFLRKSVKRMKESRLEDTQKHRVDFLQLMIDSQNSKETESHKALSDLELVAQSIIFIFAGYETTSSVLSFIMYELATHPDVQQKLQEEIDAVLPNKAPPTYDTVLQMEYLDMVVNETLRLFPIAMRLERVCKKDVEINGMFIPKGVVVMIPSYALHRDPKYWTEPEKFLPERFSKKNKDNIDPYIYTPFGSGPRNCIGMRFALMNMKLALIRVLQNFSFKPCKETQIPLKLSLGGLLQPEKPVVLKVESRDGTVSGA
T2 sequence (P33261 whole entry): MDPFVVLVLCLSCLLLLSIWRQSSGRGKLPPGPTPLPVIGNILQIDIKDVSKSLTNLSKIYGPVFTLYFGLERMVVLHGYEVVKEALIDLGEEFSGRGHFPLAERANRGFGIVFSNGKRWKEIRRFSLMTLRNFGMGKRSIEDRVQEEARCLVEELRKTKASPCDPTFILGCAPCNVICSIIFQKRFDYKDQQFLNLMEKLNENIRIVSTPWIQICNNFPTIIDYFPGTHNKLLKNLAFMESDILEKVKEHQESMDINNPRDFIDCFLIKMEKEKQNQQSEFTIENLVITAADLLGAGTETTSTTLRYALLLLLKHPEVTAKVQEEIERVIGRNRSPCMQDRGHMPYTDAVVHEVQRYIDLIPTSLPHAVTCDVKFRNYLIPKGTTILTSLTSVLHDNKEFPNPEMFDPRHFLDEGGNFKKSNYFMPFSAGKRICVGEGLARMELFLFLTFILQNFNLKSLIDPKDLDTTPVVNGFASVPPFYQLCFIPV
T1 sequence (P11712 whole entry): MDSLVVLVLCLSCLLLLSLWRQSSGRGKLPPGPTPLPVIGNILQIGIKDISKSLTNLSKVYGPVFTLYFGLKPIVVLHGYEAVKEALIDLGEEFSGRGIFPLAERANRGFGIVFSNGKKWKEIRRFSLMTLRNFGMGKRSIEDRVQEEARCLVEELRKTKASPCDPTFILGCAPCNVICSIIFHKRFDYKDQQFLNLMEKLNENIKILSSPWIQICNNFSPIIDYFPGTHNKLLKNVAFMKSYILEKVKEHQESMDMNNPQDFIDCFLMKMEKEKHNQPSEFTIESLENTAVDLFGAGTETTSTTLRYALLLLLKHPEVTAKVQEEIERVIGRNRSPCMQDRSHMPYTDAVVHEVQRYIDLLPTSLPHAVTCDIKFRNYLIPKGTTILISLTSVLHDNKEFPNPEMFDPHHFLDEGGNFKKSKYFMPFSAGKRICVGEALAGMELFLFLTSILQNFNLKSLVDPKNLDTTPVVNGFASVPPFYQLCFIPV

`CCCCOCCOc1ccc(-c2ccc(OCC)c(/C=C/C(=O)Nc3ccc([S@+]([O-])Cc4c(C)ncn4CC)cc3)c2)cc1` [WX047]: the IC50 against CYP2C9, against CYP2C19, against CYP3A4 and on CYP1A2 was > 50 µM in each case. The “Risk of inhibiting isoenzymes of human liver microsomal cytochrome P450 (conclusion in words)” value in series [1] is reported as “no risk on inhibiting five isoenzymes”. Further, the “Area Under a Curve (0-inf)” value in series [2] (intravenous injection 1 mg/kg) turned out to be 3.149 µM·h. Besides, the “Area Under a Curve (0-inf/0-last)” value in series [2] (oral 3 mg/kg) came to 3.678 µM·h. The compound also displayed a Peak time in series [2] (oral 3 mg/kg) of 2.0 h. For the same compound, the “Oral plasma system exposure (AUC0-inf) as multiple of the reference compound” value in series [2] (oral, relative to Cenicriviroc) amounted to 10.8 times. In addition, in series [2] (relative to Cenicriviroc), the “Bioavailability as multiple of the reference compound” value is on record as 7.6 times. Also, in series [2] (setting [3]), the clearance is 9.11 mL/min/kg. For the same compound, the half-life in series [2] (setting [3]) was 1.66 h. For the same compound, in series [2] (male, plasma, oral 3 mg/kg vs intravenous 1 mg/kg), the bioavailability was determined as 38.9%.

As a reminder, the IC50 is the concentration that gives 50% inhibition. In general, clearance refers to a measure of how efficiently the substance is removed, as volume per time. For orientation: half-life means the time needed for the level to fall by half in the phase considered. The low end stands for rapid decline, the high end for slow decline. The term bioavailability denotes the share of a dose that reaches the circulation, judged against a reference dose that is usually intravenous.

(Values after US11155523B2, “Biphenyl compound as CCR2/CCR5 receptor antagonist” (Medshine Discovery Inc., priority 2016, dated 2021).)
